{
  "source": "patent US6380262B1",
  "about": "“5-membered ring compounds” (Takara Shuzo Co., Ltd., priority 1998, dated 2002)",
  "key": {"[1]": {"assay": "single oral administration to a rat (death)", "assay_type": "in vivo", "conditions": "single dosage of 1000 mg/kg", "experimental": "No toxicity is observed when a physiologically effective amount of the compound of the present invention or an optical isomer thereof, or a salt thereof is administered."}, "[2]": {"test_system": "HL-60 (ATCC CCL-240) cells", "assay": "antiproliferation activity against tumor cells and apoptosis induction, MTT measurement system and optical microscope", "assay_type": "cell-based, human", "conditions": "for induction of apoptosis (apoptosis corpuscles under an optical microscope): HL-60, 96-well plate culture", "experimental": "(1) 100 μl of a suspension containing HL-60 (ATCC CCL-240) cells in RPMI-1640 medium (Nippon Suisan Kaisha) containing 10% fetal calf serum (Gibco) which had been treated at 56° C. for 30 minutes at a concentration of 5×10^4 cells/ml was dispensed into each well of a 96-well microtiter plate. 10 μl of one of 2-fold serial dilutions with water of 8.3 mM hexanoyl GM solution in 25 mM Tris-HCl buffer was added to the well of the plate. The plate was incubated at 37° C. for 48 hours in the presence of 5% CO2. After the cells were examined under an optical microscope, 10 μl of 5 mg/ml 3-(4,5-dimethylthiazol-2-yl)-2,5-diphenyltetrazolium bromide (MTT; Sigma) solution in phosphate buffered saline was added to the well. The plate was incubated for additional 4 hours. 100 μl of 2-propanol containing 0.04 N HCl was added to the well, the mixture was stirred, and the absorbance at 590 nm was measured.\n(2) 10 μl of one of 2-fold serial dilutions with 70% aqueous ethanol solution of 19 mM di-t-butyl GD solution in 70% aqueous ethanol solution was added to each well of a 96-well microtiter plate and air-dried. 100 μl of HL-60 suspension was then dispensed as described above. An apoptosis-inducing activity and an antiproliferation activity against tumor cells were examined using a measurement system using MTT."}, "HL-60 cells [3]": {"test_system": "HL-60 cells", "assay": "viability by Trypan Blue staining (Viability50)", "assay_type": "cell-based", "conditions": "Homo sapiens, read-out: Viability50 (concentration that results in a viability of 50%)", "experimental": "(§1) (3) HL-60 cells were cultured at 37° C. in RPMI 1640 medium (Bio Whittaker) containing 10% fetal calf serum (JRH) which had been treated at 56° C. for 30 minutes and suspended in RPMI 1640 medium at a concentration of 2.5×10^5 cells/5 ml.\n(§2) 10 μl of one of appropriate dilutions of the hexanoyl GM solutions in 20 mM Tris-HCl buffer or the di-t-butyl GD solution in 70% aqueous ethanol solution was added to 5 ml of the suspension. The mixtures were incubated at 37° C. for 24 hours in the presence of 5% CO2. 10 μl of aqueous actinomycin D (Sigma) solution (0.5 mg/ml), which is known as a reagent that induces apoptosis, was used in place of the sample and the mixture was incubated under the same conditions for confirmation.\nFurthermore, a portion of the cells cultured for 24 hours as described above was stained with 0.4% Trypan Blue and examined under an optical microscope. The number of viable cells which were not stained and the number of dead cells which were stained blue were counted. The concentration of each of the samples that results in a viability of 50% (Viability50 μM) was determined. As a result, Viability50 for hexanoyl GM was 9.22 μM and that for di-t-butyl GD was 46.3 μM."}, "topoisomerase II": {"biological_target": "T1, topoisomerase II (Homo sapiens, UniProt P11388)", "T1 construct": "purchased TopoGEN", "T1 sequence (P11388 whole entry)": "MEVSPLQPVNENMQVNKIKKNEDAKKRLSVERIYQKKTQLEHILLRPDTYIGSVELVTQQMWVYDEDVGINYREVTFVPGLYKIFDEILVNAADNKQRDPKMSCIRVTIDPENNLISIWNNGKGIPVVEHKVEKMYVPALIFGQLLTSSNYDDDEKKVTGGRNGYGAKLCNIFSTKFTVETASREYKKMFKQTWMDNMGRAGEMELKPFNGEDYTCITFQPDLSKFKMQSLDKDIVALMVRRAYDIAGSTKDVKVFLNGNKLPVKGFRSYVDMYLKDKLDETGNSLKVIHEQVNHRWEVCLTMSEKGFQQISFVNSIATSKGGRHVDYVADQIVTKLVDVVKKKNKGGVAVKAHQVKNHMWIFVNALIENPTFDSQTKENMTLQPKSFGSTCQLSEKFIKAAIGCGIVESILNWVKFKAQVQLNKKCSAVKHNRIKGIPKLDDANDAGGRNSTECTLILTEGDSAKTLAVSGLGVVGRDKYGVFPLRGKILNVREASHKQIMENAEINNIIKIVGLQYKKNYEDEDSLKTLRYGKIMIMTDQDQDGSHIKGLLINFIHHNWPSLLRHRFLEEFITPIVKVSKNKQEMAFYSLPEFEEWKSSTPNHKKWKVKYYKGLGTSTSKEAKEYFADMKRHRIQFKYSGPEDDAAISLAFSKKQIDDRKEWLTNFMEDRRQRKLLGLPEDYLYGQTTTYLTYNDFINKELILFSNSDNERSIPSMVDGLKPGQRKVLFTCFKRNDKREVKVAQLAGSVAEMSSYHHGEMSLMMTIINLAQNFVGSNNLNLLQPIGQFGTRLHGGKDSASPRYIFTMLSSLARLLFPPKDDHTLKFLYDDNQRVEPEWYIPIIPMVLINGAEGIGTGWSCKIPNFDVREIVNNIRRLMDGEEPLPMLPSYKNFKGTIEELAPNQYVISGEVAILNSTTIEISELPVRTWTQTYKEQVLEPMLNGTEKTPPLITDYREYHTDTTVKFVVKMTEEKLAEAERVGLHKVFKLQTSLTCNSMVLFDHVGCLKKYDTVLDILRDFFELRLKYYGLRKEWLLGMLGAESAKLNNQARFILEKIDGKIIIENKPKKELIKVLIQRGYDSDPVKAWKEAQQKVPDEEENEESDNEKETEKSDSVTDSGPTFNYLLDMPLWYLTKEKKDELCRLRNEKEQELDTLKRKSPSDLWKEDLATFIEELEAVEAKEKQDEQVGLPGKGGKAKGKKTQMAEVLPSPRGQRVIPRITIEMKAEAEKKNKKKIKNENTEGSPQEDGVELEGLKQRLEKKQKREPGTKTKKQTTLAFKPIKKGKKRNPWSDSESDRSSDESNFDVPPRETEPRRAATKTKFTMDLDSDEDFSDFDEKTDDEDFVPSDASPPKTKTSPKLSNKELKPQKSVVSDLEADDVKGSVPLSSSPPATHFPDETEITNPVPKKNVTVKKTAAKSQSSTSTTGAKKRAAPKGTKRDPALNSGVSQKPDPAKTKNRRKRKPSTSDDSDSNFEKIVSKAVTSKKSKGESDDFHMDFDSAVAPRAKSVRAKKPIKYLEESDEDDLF", "assay": "topoisomerase II inhibition, pBR322 DNA relaxation on agarose gel", "assay_type": "biochemical", "experimental": "(§3) (1) 2 μl of topoisomerase II (TopoGEN; 2 units/μl), 2 μl of 10-fold concentrated buffer [0.5 M Tris-HCl (pH 8.0), 1.2 M KCl, 0.1 M MgCl2, 5 mM adenosine triphosphate, 5 mM dithiothreitol], 2 μl of 0.1% bovine serum albumin (Takara Shuzo), 11 μl of distilled water and 2 μl of distilled water (control) or 2 μl of one solutions of hexanoyl GM adjusted to varying concentrations with water were mixed together. 1 μl of 0.25 μg/μl pBR322 DNA (Takara Shuzo) was added thereto. The resulting mixture was reacted at 37° C. After reacting for 30 minutes, 2 μl of an aqueous solution containing 1% sodium dodecyl sulfate, 50% glycerol and 0.02% Bromophenol Blue was added thereto to stop the reaction.\n(§4) 20 μl of the reaction mixture was applied to 1% agarose gel prepared using agarose L03 (Takara Shuzo) and TAE buffer [40 mM Tris, 5 mM sodium acetate, 1 mM ethylenediaminetetraacetic acid disodium salt; adjusted to pH 7.8 using acetic acid] and electrophoresed in TAE buffer. After electrophoresis, the gel was soaked in a 1 μg/ml aqueous ethidium bromide solution. The gel was exposed to ultraviolet rays to visualize the electophoretic pattern of DNA."}, "topoisomerase I": {"biological_target": "T2, topoisomerase I (Homo sapiens, UniProt P11387)", "T2 construct": "purchased TopoGEN", "T2 sequence (P11387 1-765)": "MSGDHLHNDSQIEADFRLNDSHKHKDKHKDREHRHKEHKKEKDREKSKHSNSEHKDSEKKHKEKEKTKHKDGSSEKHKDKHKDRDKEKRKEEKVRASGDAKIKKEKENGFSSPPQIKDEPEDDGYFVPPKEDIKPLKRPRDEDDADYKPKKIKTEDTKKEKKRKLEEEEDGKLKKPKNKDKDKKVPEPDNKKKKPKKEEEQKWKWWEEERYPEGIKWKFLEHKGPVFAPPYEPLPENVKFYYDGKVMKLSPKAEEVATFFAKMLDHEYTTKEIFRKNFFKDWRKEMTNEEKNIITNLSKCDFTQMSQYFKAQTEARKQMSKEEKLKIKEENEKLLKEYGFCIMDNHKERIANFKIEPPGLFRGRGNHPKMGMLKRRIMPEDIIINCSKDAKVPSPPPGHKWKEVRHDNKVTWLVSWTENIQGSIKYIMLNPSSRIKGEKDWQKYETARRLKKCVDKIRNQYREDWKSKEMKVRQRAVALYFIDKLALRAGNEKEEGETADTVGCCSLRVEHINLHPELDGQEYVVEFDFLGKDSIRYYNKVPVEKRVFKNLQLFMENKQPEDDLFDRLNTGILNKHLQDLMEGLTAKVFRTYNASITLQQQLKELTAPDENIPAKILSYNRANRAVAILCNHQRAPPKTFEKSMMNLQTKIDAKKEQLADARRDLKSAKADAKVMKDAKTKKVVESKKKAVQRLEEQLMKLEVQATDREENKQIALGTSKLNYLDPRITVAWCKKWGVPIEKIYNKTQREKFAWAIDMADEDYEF", "assay": "topoisomerase I inhibition, pBR322 DNA relaxation on agarose gel", "assay_type": "biochemical", "conditions": "topoisomerase I (TopoGEN), 37° C., 30 minutes", "experimental": "as §3\nas §4, with “The gel was exposed to ultraviolet rays to visualize the electophoretic pattern of DNA.” left out\n(2) The activity of inhibiting topoisomerase I of hexanoyl GM was determined as described in Example 3-(1) except that topoisomerase I (TopoGEN; 0.01 unit/μl) was used in place of topoisomerase II and a solution containing 100 mM Tris-HCl (pH 7.9), 10 mM EDTA, 1 mM spermidine and 50% glycerol was used as 10-fold concentrated buffer."}, "[4]": {"test_system": "human influenza virus A1/FM/1/47 (ATCC VR-97)", "assay": "therapeutic effect in mice infected with influenza virus", "assay_type": "in vivo, BALB/c mice", "conditions": "control 4 out of 11 died", "experimental": "(24) Therapeutic effects of cyclopentenone and 2-hydroxy-4-glutathion-S-yl-2-cyclopenten-1-one were examined by conducting experiments in which mice were infected with influenza virus.\nEach of 4 weeks old female BALB/c mice was intranasally infected with 1×10^4 FFU of human influenza virus A1/FM/1/47 (ATCC VR-97) which had been propagated in a hen's egg.\nImmediately after the infection with virus, single dose of 1 mg/kg of cyclopentenone, or 3 mg/kg or 30 mg/kg of 2-hydroxy-4-glutathion-S-yl-2-cyclopenten-1-one was intraperitoneally administered to the mouse infected with influenza virus.\nPhosphate buffered saline was administered to control mice.\nAs a result, 4 out of 11 mice in the control group died by day 16. On the other hand, the numbers of dead mice were only 1 out of 11, 1 out of 11 and 1 out of 10 for the groups administered with 1 mg/kg of cyclopentenone, 3 mg/kg of 2-hydroxy-4-glutathion-S-yl-2-cyclopenten-1-one and 30 mg/kg of 2-hydroxy-4-glutathion-S-yl-2-cyclopenten-1-one, respectively."}, "HL-60 cells [5]": {"test_system": "HL-60 cells", "assay": "measurement of apoptotic cells using FACScan", "assay_type": "cell-based, human", "conditions": "HL-60, 24 hours; actinomycin D 10 μl of 0.5 mg/ml in 5 ml", "experimental": "as §1, §2\n(§5) Measurement of apoptotic cells using FACScan as described in Saibo Kogaku, Bessatsu (Cell Technology, Suppl.) Jikken Protocol Series: Apoptosis Jikken Protocol (Experimental Protocol Series: Experimental Protocols for Apoptosis) (Shujun-sha) pp. 129-130 and analysis of DNA fragmentation as described in Bio Manual UP Series: Saishin Apoptosis Jikken-ho (Bio Manual UP Series: Current Experimental Methods for Apoptosis) (Yodo-sha) pp. 61-63 were carried out using cells cultured in the same manner as that described above."}, "HL-60 cells [6]": {"test_system": "HL-60 cells", "assay": "analysis of DNA fragmentation", "assay_type": "cell-based, human", "conditions": "HL-60, 24 hours; actinomycin D 10 μl of 0.5 mg/ml in 5 ml", "experimental": "as §1, §2, §5"}, "[7]": {"assay": "single oral administration to a mouse (death)", "assay_type": "in vivo", "conditions": "single dosage of 100 mg/kg"}},
  "note": "Where two headings read alike, the source gives them in different places. Numbered stars: 1 amine (or outer) side, 2 acyl side, 3 side chain; on linkers, the order of the positions; unused ones are H or OH. Bridge positions count the residues as written; N and C are the ends. Square brackets hold non-standard residues; d marks the D form. Peptide text beside a SMILES is read from it. I, II: the chains in the order shown. Actinocin(9to1) = Cc1c2oc3c(C)ccc(C(=O)[*:1])c3nc-2c(C(=O)[*:2])c(N)c1=O; NMeV = CN[C@H](C(=O)O)C(C)C; Sar = CNCC(=O)O",
  "data": [
    {"smiles": "CCCCCC(=O)OC1=CC(SC[C@H](NC(=O)CC[C@H](N)C(=O)O)C(=O)NCC(=O)O)CC1=O", "note": "(stereo partly drawn) [hexanoyl GM, 2-hexanoyloxy-4-glutathion-S-yl-2-cyclopenten-1-one]", "values": [
      {"measurement": "death after single oral administration", "setting": "[1]", "result": "no death was observed"},
      {"measurement": "induction of apoptosis (apoptosis corpuscles under an optical microscope)", "setting": "[2]", "result": "apoptosis corpuscles were observed"},
      {"measurement": "final concentration down to which an antiproliferation activity against tumor cells was clearly exhibited", "setting": "[2]; HL-60, 48 hours, MTT, 2-fold serial dilutions of 8.3 mM solution", "result": "≥ 6.25", "unit": "pm"},
      {"measurement": "IC50", "setting": "HL-60 cells [3]; HL-60, 24 hours, 0.4% Trypan Blue", "result": 9.22, "unit": "µM"},
      {"measurement": "selectivity of inhibition, topoisomerase II as compared with topoisomerase I", "setting": "topoisomerase II", "result": "selective inhibitory activity on topoisomerase II"},
      {"measurement": "concentration at which change of DNA from superhelical type to relaxed type was partially or completely inhibited", "setting": "topoisomerase II; topoisomerase II (TopoGEN), pBR322 DNA, 37° C., 30 minutes", "result": "≥ 100", "unit": "µM"},
      {"measurement": "concentration at which change of DNA from superhelical type to relaxed type was partially inhibited", "setting": "topoisomerase I", "result": "≥ 1000", "unit": "µM"}
    ]},
    {"smiles": "N[C@@H](CCC(=O)N[C@@H](CSC1C=C(O)C(=O)C1)C(=O)NCC(=O)O)C(=O)O", "note": "(stereo partly drawn) [2-hydroxy-4-glutathion-S-yl-2-cyclopenten-1-one]", "values": [
      {"measurement": "death after single oral administration", "setting": "[1]", "result": "no death was observed"},
      {"measurement": "number of dead mice by day 16", "setting": "[4]; 3 mg/kg single intraperitoneal dose immediately after infection", "result": "1 out of 11"},
      {"measurement": "number of dead mice by day 16", "setting": "[4]; 30 mg/kg single intraperitoneal dose immediately after infection", "result": "1 out of 10"}
    ]},
    {"smiles": "CC(C)(C)OC1C(=O)CC(SC[C@H](NC(=O)CC[C@H](N)C(=O)O)C(=O)NCC(=O)O)C1OC(C)(C)C", "note": "(stereo partly drawn) [di-t-butyl GD, 2,3-di-t-butoxy-4-glutathion-S-yl-1-cyclopentanone]", "values": [
      {"measurement": "death after single oral administration", "setting": "[1]", "result": "no death was observed"},
      {"measurement": "induction of apoptosis (apoptosis corpuscles under an optical microscope)", "setting": "[2]", "result": "apoptosis corpuscles were observed"},
      {"measurement": "final concentration down to which an antiproliferation activity against tumor cells was clearly exhibited", "setting": "[2]; HL-60, MTT, 2-fold serial dilutions of 19 mM solution, air-dried in well", "result": "≥ 34", "unit": "µM"},
      {"measurement": "IC50", "setting": "HL-60 cells [3]; HL-60, 24 h", "result": 46.3, "unit": "µM"}
    ]},
    {"smiles": "Cc1c2oc3c(C)ccc(C(=O)N[C@@H]4C(=O)N[C@H](C(C)C)C(=O)N5CCC[C@H]5C(=O)N(C)CC(=O)N(C)[C@@H](C(C)C)C(=O)O[C@@H]4C)c3nc-2c(C(=O)N[C@@H]2C(=O)N[C@H](C(C)C)C(=O)N3CCC[C@H]3C(=O)N(C)CC(=O)N(C)[C@@H](C(C)C)C(=O)O[C@@H]2C)c(N)c1=O", "note": "[actinomycin D] (I: T[dV]P[Sar][NMeV] / II: T[dV]P[Sar][NMeV]; ester I:1-I:C, II:1-II:C; linker I:N-II:N via Actinocin(9to1))", "values": [
      {"measurement": "apoptotic cells (FACScan)", "setting": "HL-60 cells [5]", "result": "observed"},
      {"measurement": "DNA fragmentation", "setting": "HL-60 cells [6]", "result": "observed"}
    ]},
    {"smiles": "O=C1C=CC(O)C1O", "note": "(stereo not drawn) [cyclopentenone, 4,5-dihydroxy-2-cyclopenten-1-one]", "values": [
      {"measurement": "death after single oral administration", "setting": "[7]", "result": "No death was observed"},
      {"measurement": "number of dead mice by day 16", "setting": "[4]; 1 mg/kg single intraperitoneal dose immediately after infection", "result": "1 out of 11"}
    ]}
  ]
}
